Test results: patent US20240051936A1, “ISOINDOLINONE COMPOUNDS” (Monte Rosa Therapeutics, Inc., priority 2021, published 2024)
Where two headings read alike, the source gives them in different places.

What was measured:
GSPT1 = GSPT1 (Homo sapiens (Human), UniProt P15170+Q96SW2); test: Immunofluorescence assay for GSPT1 degradation in CAL-Si cells; format: cell-based; conditions: CAL-Si cells
Method: The compounds were tested in an immunofluorescence assay for their activity to bind to degrade GSPT1. CAL-Si cells were purchased from DSMZ (cat. Number ACC302), sub-cultured in 90% Dulbecco's MEM (4.5 g/L glucose, Gibco 11965)+10% heat inactivated FBS (BioConcept, 2-01F136I) and incubated at 37° C., 5% CO2. For the assay, imaging microtiterplate Cell Carrier 96 Ultra (Perkin Elmer 6055302) were pre-coated with Fibronectin (Sigma F085, 30 μl at 0.2 μg/ml) in PBS (100 μl, Gibco 14190) for 45 min at room temperature, rinsed with PBS and CAL-Si cells (30K cells/well) were plated and let to adhere overnight. Cells were treated with compounds typically using a serial dilution ranging from 30 μM to 0.1 nM for 6 hours. Compounds were stored at 10 mM DMSO stocks. Vehicle (DMSO), positive (CC-885, 10 μM) and rescue controls (positive control plus 0.2 μM bortezomib) were also included at this stage. Cells were subsequently rinsed with PBS and fixed in 10% Formalin solution (50 μl, Sigma HT5011)) for 20 mins at room temperature. Following three consecutive PBS washes (100 μl), cells were permeabilized in 0.1% Triton X-100 in PBS (Sigma 93443, 50 μl) for 15 mins at room temperature. Following three further PBS washes, 50 μl blocking buffer (1% BSA, Sigma A4503, in PBS) was added for 45 min for signal-to-noise reduction.
Primary antibody (human GSPT1, Sigma HPA052488) was diluted in blocking buffer (dil.1/300, 35 μl/well) and incubated with the cells overnight at 4° C. After three PBS washes, Alexa-fluor 488 coupled secondary antibodies (Invitrogen, A32731, dil.1/1000), Alexa-fluor 647-Phalloïdin (Invitrogen, A22287, dil.1/200) and DAPI (Thermo, #62248, dil.1/1000) were diluted in blocking buffer and incubated with the samples for 2 hours at room temperature. After three final PBS washes, samples were conserved in 100 μl PBS in the dark, until measurement. Image acquisition was performed on the Operetta High-Content Imager (Perkin-Elmer). Fluorescence intensity of Alexa-Fluor 488 (GSPT1), Alexa-Fluor 647 (Actin) and DAPI (Nucleus) were measured. For the determination of GSPT1 DC50 values, a custom algorithm implemented in the PerkinElmer image analysis software Harmony-Acapella® was developed. After user-defined setting of adjustment parameters, the analysis was run identically without human intervention for all image fields. DAPI staining of the nuclei was used to determine the location of cells using standard nuclei detection modules. Segmentation artifacts were removed by threshold-based filters for area, roundness and intensity. The outline of the cells was determined analogously from the sum of the normalized, smoothed DAPI and Actin channel, starting from each nucleus. The Alexa-Fluor 488 (GSPT1) signal intensity in each cell was finally measured, in order to obtain a Mean intensity per cell. GSPT1 degradation (DC50) was calculated after normalization to controls and data import in CDD vault Database, using non-linear regression.

[1] = biological target: Full length wild-type cereblon CRBN (Homo sapiens (Human), UniProt Q96SW2); test: Fluorescence polarization (FP) assay, cereblon binding
Method: Compound activity was monitored in a fluorescence polarization (FP) homogeneous assay using 1-[5-({2-[2-(2-{[2-(2,6-dioxopiperidin-3-yl)-1,3-dioxo-2,3-dihydro-1H-isoindol-4-yl]oxy}acetamido)ethoxy]ethyl}carbamoyl)pentyl]-3,3-dimethyl-2-[(1E,3E)-5-[(2E)-1,3,3-trimethyl-5-sulfo-2,3-dihydro-1H-indol-2-ylidene]penta-1,3-dien-1-yl]-3H-indol-1-ium-5-sulfonate as a fluorescent probe. Unless otherwise stated, all reagents were purchased from Sigma Aldrich. Enzymatic reactions were conducted in Perkin-Elmer Black 384 well ProxiPlate Plus (catalogue no. 6008269) in 10 sL total volume. Full length wild-type cereblon CRBN (80.0 nM, 10 sL) was incubated in assay buffer containing 20 mM HEPES (pH 8.0), […], 0.5 mM TCEP and 0.05% Tween 20 in the presence or absence of compound (300 nL). Inhibitors were stored as 10 mM DMSO stocks in an inert environment (low humidity, dark, low oxygen, room temperature) using the Storage Pod System.
Compounds and DMSO were dispensed using the Echo E5XX (Labcyte Inc. USA) to give concentrations from 300 to 0.937 or 3000 to 9.3 nM in a 12 data point curve. […] Following incubation at room temperature for 30 min, the assay was initiated by dispensing the probe to a final concentration of 5 nM (2.5 nL of a 20 μM stock) using the Echo E5XX. FP was measured after a period of 12 hours using a Pherastar plate reader (BMG Labtech, Germany) exciting at 590 nm and measuring the amount of parallel and perpendicular light at 675 nm. The FP signal was subsequently normalized to the no-compound control (i.e., DMSO). Analysis and IC50 values were derived using Dotmatics (Dotmatics UK) software.

[2] = treated 6 hours, read-out: Code, activity for GSPT1 degradation (DC50)
[3] = cereblon binding, bound, read-out: IC50 value
[4] = wild-type CRBN 80.0 nM, probe 5 nM, FP measured after 12 hours, read-out: rFP IC50
[5] = compounds with code A, read-out: DC50 value code

GSPT1, sequence (P15170 whole entry): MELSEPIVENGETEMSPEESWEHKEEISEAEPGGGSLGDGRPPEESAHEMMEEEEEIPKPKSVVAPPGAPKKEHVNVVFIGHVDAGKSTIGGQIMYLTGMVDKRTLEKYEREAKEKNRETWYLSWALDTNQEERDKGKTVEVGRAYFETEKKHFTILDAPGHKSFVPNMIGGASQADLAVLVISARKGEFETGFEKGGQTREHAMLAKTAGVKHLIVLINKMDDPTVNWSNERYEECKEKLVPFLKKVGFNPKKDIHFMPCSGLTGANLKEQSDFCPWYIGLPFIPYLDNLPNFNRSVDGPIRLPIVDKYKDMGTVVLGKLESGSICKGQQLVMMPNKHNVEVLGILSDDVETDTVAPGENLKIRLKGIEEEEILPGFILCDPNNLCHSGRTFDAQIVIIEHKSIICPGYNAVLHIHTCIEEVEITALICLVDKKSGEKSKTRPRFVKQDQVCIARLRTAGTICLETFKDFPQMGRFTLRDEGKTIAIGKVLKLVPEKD
GSPT1, sequence (Q96SW2 whole entry): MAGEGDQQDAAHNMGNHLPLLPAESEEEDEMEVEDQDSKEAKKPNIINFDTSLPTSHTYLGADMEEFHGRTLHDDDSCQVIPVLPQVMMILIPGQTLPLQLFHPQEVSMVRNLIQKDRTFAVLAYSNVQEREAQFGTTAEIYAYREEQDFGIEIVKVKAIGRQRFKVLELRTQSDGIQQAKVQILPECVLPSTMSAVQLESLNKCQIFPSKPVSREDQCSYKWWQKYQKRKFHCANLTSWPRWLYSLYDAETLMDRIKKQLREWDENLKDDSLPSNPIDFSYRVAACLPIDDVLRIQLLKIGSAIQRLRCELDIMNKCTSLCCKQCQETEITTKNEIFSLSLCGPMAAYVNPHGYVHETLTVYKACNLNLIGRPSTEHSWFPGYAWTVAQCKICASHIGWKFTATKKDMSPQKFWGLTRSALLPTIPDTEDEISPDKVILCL
GSPT1, sequence (Q16531 whole entry partner): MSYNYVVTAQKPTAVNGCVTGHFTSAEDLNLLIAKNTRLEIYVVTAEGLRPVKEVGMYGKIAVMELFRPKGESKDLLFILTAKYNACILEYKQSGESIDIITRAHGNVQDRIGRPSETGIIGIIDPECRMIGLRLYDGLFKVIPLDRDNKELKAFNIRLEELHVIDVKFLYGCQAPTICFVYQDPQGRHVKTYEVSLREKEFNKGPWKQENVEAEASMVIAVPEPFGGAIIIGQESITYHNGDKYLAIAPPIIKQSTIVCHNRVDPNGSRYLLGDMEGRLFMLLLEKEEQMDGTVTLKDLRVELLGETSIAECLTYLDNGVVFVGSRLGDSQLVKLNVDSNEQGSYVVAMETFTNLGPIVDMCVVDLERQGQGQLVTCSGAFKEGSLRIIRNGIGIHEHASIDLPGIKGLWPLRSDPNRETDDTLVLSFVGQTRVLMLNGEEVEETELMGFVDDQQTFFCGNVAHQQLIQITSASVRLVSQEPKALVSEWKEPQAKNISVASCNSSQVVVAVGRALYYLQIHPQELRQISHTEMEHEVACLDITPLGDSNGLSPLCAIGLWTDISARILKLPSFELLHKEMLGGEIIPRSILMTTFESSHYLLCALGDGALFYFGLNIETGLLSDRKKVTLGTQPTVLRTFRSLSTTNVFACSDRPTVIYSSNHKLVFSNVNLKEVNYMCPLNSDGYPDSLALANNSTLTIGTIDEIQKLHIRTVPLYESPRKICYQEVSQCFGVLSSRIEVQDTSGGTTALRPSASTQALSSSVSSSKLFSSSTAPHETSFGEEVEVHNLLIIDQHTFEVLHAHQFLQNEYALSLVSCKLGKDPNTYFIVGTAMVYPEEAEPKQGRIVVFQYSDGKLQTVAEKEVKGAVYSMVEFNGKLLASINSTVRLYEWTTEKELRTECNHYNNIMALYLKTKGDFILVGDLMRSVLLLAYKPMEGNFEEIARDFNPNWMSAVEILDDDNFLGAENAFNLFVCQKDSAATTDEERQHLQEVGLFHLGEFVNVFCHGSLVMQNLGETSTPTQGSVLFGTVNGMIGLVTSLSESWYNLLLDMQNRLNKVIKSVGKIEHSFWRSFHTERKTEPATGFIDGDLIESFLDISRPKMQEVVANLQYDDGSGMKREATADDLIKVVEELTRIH
Full length wild-type cereblon CRBN, sequence (Q96SW2 whole entry): as the sequence (Q96SW2 whole entry) above

DC50 (GSPT1; [2])	IC50 [1, 3]	IC50 [1, 4]	DC50 (GSPT1; [5])	SMILES
30 to 300 nM	< 600 nM	1200 to 1900 nM		O=C1CCC(N2Cc3c(F)cc(COC(=O)Nc4cccc(OC(F)F)c4)cc3C2=O)C(=O)N1 (stereo not drawn) [Compound 26, (2-(2,6-dioxopiperidin-3-yl)-7-fluoro-3-oxoisoindolin-5-yl)methyl(3-(difluoromethoxy)phenyl)carbamate]
< 30 nM		> 1900 nM	< 30 nM	CC(C)(C)c1cccc(NC(=O)OCc2cc(F)c3c(c2)C(=O)N(C2CCC(=O)NC2=O)C3)c1 (stereo not drawn) [Compound 25, (2-(2,6-dioxopiperidin-3-yl)-7-fluoro-3-oxoisoindolin-5-yl)methyl (3-(tert-butyl)phenyl)carbamate]
< 30 nM	< 600 nM	≤ 600 nM	< 30 nM	O=C1CCC(N2Cc3c(F)cc(COC(=O)Nc4ccc(-c5ccccn5)cc4)cc3C2=O)C(=O)N1 (stereo not drawn) [Compound 11, (2-(2,6-dioxopiperidin-3-yl)-7-fluoro-3-oxoisoindolin-5-yl)methyl (4-(pyridin-2-yl)phenyl)carbamate]
30 to 300 nM	< 600 nM	1200 to 1900 nM		COc1cc(COC(=O)Nc2cc(F)cc(OC(F)(F)F)c2)cc2c1CN(C1CCC(=O)NC1=O)C2=O (stereo not drawn) [Compound 41, (2-(2,6-dioxopiperidin-3-yl)-7-methoxy-3-oxoisoindolin-5-yl)methyl (3-fluoro-5-(trifluoromethoxy)phenyl) carbamate]
30 to 300 nM	< 600 nM	1200 to 1900 nM		COc1cc(COC(=O)Nc2ccc(C)c(OC(F)F)c2)cc2c1CN(C1CCC(=O)NC1=O)C2=O (stereo not drawn) [Compound 48, (2-(2,6-dioxopiperidin-3-yl)-7-methoxy-3-oxoisoindolin-5-yl)methyl (3-(difluoromethoxy)-4-methylphenyl) carbamate]
30 to 300 nM	< 600 nM	600 to 1200 nM		COc1cc(COC(=O)Nc2ccc(F)c(OC(F)F)c2)cc2c1CN(C1CCC(=O)NC1=O)C2=O (stereo not drawn) [Compound 46, (2-(2,6-dioxopiperidin-3-yl)-7-methoxy-3-oxoisoindolin-5-yl)methyl(3-(difluoromethoxy)-4-fluorophenyl)carbamate]
< 30 nM	< 600 nM	≤ 600 nM	< 30 nM	Cc1ccccc1-c1ccc(NC(=O)OCc2cc(F)c3c(c2)C(=O)N(C2CCC(=O)NC2=O)C3)cn1 (stereo not drawn) [Compound 19, (2-(2,6-dioxopiperidin-3-yl)-7-fluoro-3-oxoisoindolin-5-yl)methyl (6-(o-tolyl)pyridin-3-yl)carbamate]
< 30 nM	< 600 nM	600 to 1200 nM	< 30 nM	COc1cc(COC(=O)Nc2ccc(-c3ccccn3)cc2)cc2c1CN(C1CCC(=O)NC1=O)C2=O (stereo not drawn) [Compound 42, (2-(2,6-dioxopiperidin-3-yl)-7-methoxy-3-oxoisoindolin-5-yl)methyl (4-(pyridin-2-yl)phenyl)carbamate]
< 30 nM	< 600 nM	600 to 1200 nM	< 30 nM	COc1cc(COC(=O)Nc2ccc(C)c(Cl)c2)cc2c1CN(C1CCC(=O)NC1=O)C2=O (stereo not drawn) [Compound 5, (2-(2,6-dioxopiperidin-3-yl)-7-methoxy-3-oxoisoindolin-5-yl)methyl(3-chloro-4-methylphenyl)carbamate]
> 300 nM	< 600 nM	≤ 600 nM		COc1cc(COC(=O)Nc2cccc(OC3CC3)c2)cc2c1CN(C1CCC(=O)NC1=O)C2=O (stereo not drawn) [Compound 58, (2-(2,6-dioxopiperidin-3-yl)-7-methoxy-3-oxoisoindolin-5-yl)methyl (3-cyclopropoxyphenyl)carbamate]
30 to 300 nM		> 1900 nM		Cc1cc(C)cc(NC(=O)OCc2cc(F)c3c(c2)C(=O)N(C2CCC(=O)NC2=O)C3)c1 (stereo not drawn) [Compound 31, (2-(2,6-dioxopiperidin-3-yl)-7-fluoro-3-oxoisoindolin-5-yl)methyl (3,5-dimethylphenyl)carbamate]
< 30 nM	< 600 nM	1200 to 1900 nM	< 30 nM	O=C1CCC(N2Cc3c(F)cc(COC(=O)Nc4ccc(-c5ccccc5F)nc4)cc3C2=O)C(=O)N1 (stereo not drawn) [Compound 18, (2-(2,6-dioxopiperidin-3-yl)-7-fluoro-3-oxoisoindolin-5-yl)methyl(6-(2-fluorophenyl)pyridin-3-yl)carbamate]
< 30 nM	< 600 nM	≤ 600 nM	< 30 nM	COc1cc(COC(=O)Nc2ccc(C(C)(C)C)nc2)cc2c1CN(C1CCC(=O)NC1=O)C2=O (stereo not drawn) [Compound 44, (2-(2,6-dioxopiperidin-3-yl)-7-methoxy-3-oxoisoindolin-5-yl)methyl (6-(tert-butyl)pyridin-3-yl)carbamate]

SMILES	DC50 (GSPT1; [2])	IC50 [1, 3]	IC50 [1, 4]	DC50 (GSPT1; [5])
COc1cc(COC(=O)Nc2ccc3c(c2)OCC3(C)C)cc2c1CN(C1CCC(=O)NC1=O)C2=O (stereo not drawn) [Compound 37, (2-(2,6-dioxopiperidin-3-yl)-7-methoxy-3-oxoisoindolin-5-yl) methyl(3,3-dimethyl-2,3-dihydrobenzofuran-6-yl)carbamate]	< 30 nM	< 1200 nM		< 30 nM
O=C1CCC(N2Cc3c(F)cc(COC(=O)Nc4cc(Cl)cc(OC(F)F)c4)cc3C2=O)C(=O)N1 (stereo not drawn) [Compound 34, (2-(2,6-dioxopiperidin-3-yl)-7-fluoro-3-oxoisoindolin-5-yl)methyl(3-chloro-5-(difluoromethoxy)phenyl)carbamate]	30 to 300 nM		> 1900 nM	
O=C1CCC(N2Cc3c(F)cc(COC(=O)Nc4cc(F)cc(OC(F)(F)F)c4)cc3C2=O)C(=O)N1 (stereo not drawn) [Compound 12, (2-(2,6-dioxopiperidin-3-yl)-7-fluoro-3-oxoisoindolin-5-yl)methyl(3-fluoro-5-(trifluoromethoxy)phenyl)carbamate]	30 to 300 nM		> 1900 nM	
O=C1CCC(N2Cc3c(F)cc(COC(=O)Nc4cc(F)cc(OC(F)F)c4)cc3C2=O)C(=O)N1 (stereo not drawn) [Compound 6, (2-(2,6-dioxopiperidin-3-yl)-7-fluoro-3-oxoisoindolin-5-yl)methyl(3-(difluoromethoxy)-5-fluorophenyl)carbamate]	30 to 300 nM		> 1900 nM	
Cc1ccc(NC(=O)OCc2cc(Br)c3c(c2)C(=O)N(C2CCC(=O)NC2=O)C3)cc1Cl (stereo not drawn) [Compound 1, (7-bromo-2-(2,6-dioxopiperidin-3-yl)-3-oxoisoindolin-5-yl)methyl(3-chloro-4-methylphenyl)carbamate]	30 to 300 nM		> 1900 nM	
Cc1ccc(NC(=O)OCc2cc(F)c3c(c2)C(=O)N(C2CCC(=O)NC2=O)C3)cc1Cl (stereo not drawn) [Compound 3, (2-(2,6-dioxopiperidin-3-yl)-7-fluoro-3-oxoisoindolin-5-yl)methyl(3-chloro-4-methylphenyl)carbamate]	30 to 300 nM		> 1900 nM	
